Test results: PubChem BioAssay AID2060912 (Molecular Pharmacology Branch, DTP, NCI, 2025)

Test system: HUVEC/MSC spheroids viability
Assay: Human HUVEC/MSC cell line growth inhibition [KRAS2];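 for viability, T/C: percent of DMSO vehicle control luminescence so 100% = untreated viability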
Conditions: for IC50: curve of first compound; for viability, T/C: stronger effect = lower value
Procedure, shortened: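 Endothelial cells (HUVEC) plus mesenchymal stem cells, cultured at 37 °C/5% CO2 and assembled into spheroids without cancer cells, served as a stromal control. Drug pairs and single agents spanned half-log ranges anchored to clinical Cmax.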

[1] = second compound 0.0316 µM, first compound 0.0316 µM
[2] = second compound 0.0316 µM, first compound 0.1 µM
[3] = second compound 0.0316 µM, first compound 0.316 µM
[4] = second compound 0.0316 µM, first compound 1 µM
[5] = second compound 0.0316 µM, first compound 3.16 µM
[6] = second compound 0.0316 µM, first compound 10 µM
[7] = second compound 0.1 µM, first compound 0.0316 µM
[8] = second compound 0.1 µM, first compound 0.1 µM
[9] = second compound 0.1 µM, first compound 0.316 µM
[10] = second compound 0.1 µM, first compound 1 µM
[11] = second compound 0.1 µM, first compound 3.16 µM
[12] = second compound 0.1 µM, first compound 10 µM
[13] = second compound 0.316 µM, first compound 0.0316 µM
[14] = second compound 0.316 µM, first compound 0.1 µM
[15] = second compound 0.316 µM, first compound 0.316 µM
[16] = second compound 0.316 µM, first compound 1 µM
[17] = second compound 0.316 µM, first compound 3.16 µM
[18] = second compound 0.316 µM, first compound 10 µM
[19] = second compound 1 µM, first compound 0.0316 µM
[20] = second compound 1 µM, first compound 0.1 µM
[21] = second compound 1 µM, first compound 0.316 µM
[22] = second compound 1 µM, first compound 1 µM
[23] = second compound 1 µM, first compound 3.16 µM
[24] = second compound 1 µM, first compound 10 µM
[25] = second compound 3.16 µM, first compound 0.0316 µM
[26] = second compound 3.16 µM, first compound 0.1 µM
[27] = second compound 3.16 µM, first compound 0.316 µM
[28] = second compound 3.16 µM, first compound 1 µM
[29] = second compound 3.16 µM, first compound 3.16 µM
[30] = second compound 3.16 µM, first compound 10 µM
[31] = second compound 10 µM, first compound 0.0316 µM
[32] = second compound 10 µM, first compound 0.1 µM
[33] = second compound 10 µM, first compound 0.316 µM
[34] = second compound 10 µM, first compound 1 µM
[35] = second compound 10 µM, first compound 3.16 µM
[36] = second compound 10 µM, first compound 10 µM

Work on CC(=O)Nc1cccc(-n2c(=O)n(C3CC3)c(=O)c3c(Nc4ccc(I)cc4F)n(C)c(=O)c(C)c32)c1 + COc1cc2nc(C)nc(NC(C)c3cc(N)cc(C(F)(F)F)c3)c2cc1OC1CCOC1 yielded an IC50 (second compound 0.0316 µM) of 0.0153 µM, an IC50 (second compound 0.1 µM) of 0.0152 µM and an IC50 (second compound 0.316 µM) of 0.0131 µM. For the same compound, the IC50 (second compound 1 µM) was 0.013 µM, the IC50 (second compound 3.16 µM) was 0.0144 µM and the IC50 (second compound 10 µM) was 0.0104 µM. It also gave a viability, T/C (second compound 0.0316 µM, first compound 94.9 pM) of 126%, a viability, T/C (second compound 0.0316 µM, first compound 0.0003 µM) of 124% and a viability, T/C (second compound 0.0316 µM, first compound 0.000949 µM) of 105%. The viability, T/C (second compound 0.0316 µM, first compound 0.003 µM) was 92.6%, the viability, T/C (second compound 0.0316 µM, first compound 0.00949 µM) was 78.8% and the viability, T/C (second compound 0.0316 µM, first compound 0.03 µM) was 18.3%. For the same compound, the viability, T/C (second compound 0.1 µM, first compound 94.9 pM) was 105%, the viability, T/C (second compound 0.1 µM, first compound 0.0003 µM) was 129% and the viability, T/C (second compound 0.1 µM, first compound 0.000949 µM) was 129%. For the same compound, the viability, T/C (second compound 0.1 µM, first compound 0.003 µM) was 74.2%, the viability, T/C (second compound 0.1 µM, first compound 0.00949 µM) was 80.2% and the viability, T/C (second compound 0.1 µM, first compound 0.03 µM) was 18.6%. The viability, T/C (second compound 0.316 µM, first compound 94.9 pM) was 103%, the viability, T/C (second compound 0.316 µM, first compound 0.0003 µM) was 134% and the viability, T/C (second compound 0.316 µM, first compound 0.000949 µM) was 115%. The viability, T/C (second compound 0.316 µM, first compound 0.003 µM) was 82.6%, the viability, T/C (second compound 0.316 µM, first compound 0.00949 µM) was 68.8% and the viability, T/C (second compound 0.316 µM, first compound 0.03 µM) was 14.6%. It also gave a viability, T/C (second compound 1 µM, first compound 94.9 pM) of 108%, a viability, T/C (second compound 1 µM, first compound 0.0003 µM) of 125% and a viability, T/C (second compound 1 µM, first compound 0.000949 µM) of 91.4%. It also gave a viability, T/C (second compound 1 µM, first compound 0.003 µM) of 76.7%, a viability, T/C (second compound 1 µM, first compound 0.00949 µM) of 73.2% and a viability, T/C (second compound 1 µM, first compound 0.03 µM) of 15.2%. The viability, T/C (second compound 3.16 µM, first compound 94.9 pM) was 91%, the viability, T/C (second compound 3.16 µM, first compound 0.0003 µM) was 104% and the viability, T/C (second compound 3.16 µM, first compound 0.000949 µM) was 113%. The viability, T/C (second compound 3.16 µM, first compound 0.003 µM) was 68.8%, the viability, T/C (second compound 3.16 µM, first compound 0.00949 µM) was 76.4% and the viability, T/C (second compound 3.16 µM, first compound 0.03 µM) was 15.9%. It also gave a viability, T/C (second compound 10 µM, first compound 94.9 pM) of 83%, a viability, T/C (second compound 10 µM, first compound 0.0003 µM) of 99% and a viability, T/C (second compound 10 µM, first compound 0.000949 µM) of 97%. It also gave a viability, T/C (second compound 10 µM, first compound 0.003 µM) of 59.6%, a viability, T/C (second compound 10 µM, first compound 0.00949 µM) of 60.4% and a viability, T/C (second compound 10 µM, first compound 0.03 µM) of 5.88%.
COc1cc(Nc2ncc3c(n2)-c2ccc(Cl)cc2C(c2c(F)cccc2OC)=NC3)ccc1C(=O)O + COc1cc2nc(C)nc(NC(C)c3cc(N)cc(C(F)(F)F)c3)c2cc1OC1CCOC1 gave an IC50 (second compound 0.0316 µM) of over 10 µM, an IC50 (second compound 0.1 µM) of over 10 µM and an IC50 (second compound 0.316 µM) of 9.25 µM. The IC50 (second compound 1 µM) was over 10 µM, the IC50 (second compound 3.16 µM) was 9.65 µM and the IC50 (second compound 10 µM) was 8.57 µM. It also gave a viability, T/C [1] of 79.5%, a viability, T/C [2] of 94.3% and a viability, T/C [3] of 109%. The viability, T/C [4] was 82.5%, the viability, T/C [5] was 111% and the viability, T/C [6] was 61.6%. It also gave a viability, T/C [7] of 95.5%, a viability, T/C [8] of 89.7% and a viability, T/C [9] of 105%. For the same compound, the viability, T/C [10] was 85.8%, the viability, T/C [11] was 97% and the viability, T/C [12] was 58.8%. For the same compound, the viability, T/C [13] was 87.8%, the viability, T/C [14] was 97.1% and the viability, T/C [15] was 92.5%. The viability, T/C [16] was 105%, the viability, T/C [17] was 104% and the viability, T/C [18] was 46.5%. It also gave a viability, T/C [19] of 86.9%, a viability, T/C [20] of 89.5% and a viability, T/C [21] of 96.8%. The viability, T/C [22] was 106%, the viability, T/C [23] was 107% and the viability, T/C [24] was 52.7%. For the same compound, the viability, T/C [25] was 77.4%, the viability, T/C [26] was 94.8% and the viability, T/C [27] was 102%. For the same compound, the viability, T/C [28] was 77%, the viability, T/C [29] was 102% and the viability, T/C [30] was 48.7%. The viability, T/C [31] was 62.5%, the viability, T/C [32] was 85.8% and the viability, T/C [33] was 72.5%. The viability, T/C [34] was 84.9%, the viability, T/C [35] was 74.9% and the viability, T/C [36] was 46.1%.
In the case of COc1cc2nccc(Oc3ccc(NC(=O)C4(C(=O)Nc5ccc(F)cc5)CC4)cc3)c2cc1OC + COc1cc2nc(C)nc(NC(C)c3cc(N)cc(C(F)(F)F)c3)c2cc1OC1CCOC1, the IC50 (second compound 0.0316 µM) is reported as 6.12 µM, the IC50 (second compound 0.1 µM) is reported as 4.19 µM and the IC50 (second compound 0.316 µM) is reported as 5.33 µM. For the same compound, the IC50 (second compound 1 µM) was 5.1 µM, the IC50 (second compound 3.16 µM) was 4.26 µM and the IC50 (second compound 10 µM) was 1.87 µM. The viability, T/C [1] was 73.8%, the viability, T/C [2] was 75.2% and the viability, T/C [3] was 66.8%. The viability, T/C [4] was 80.3%, the viability, T/C [5] was 73.5% and the viability, T/C [6] was 32.5%. It also gave a viability, T/C [7] of 74.7%, a viability, T/C [8] of 77% and a viability, T/C [9] of 68%. For the same compound, the viability, T/C [10] was 64.8%, the viability, T/C [11] was 63.4% and the viability, T/C [12] was 15.9%. For the same compound, the viability, T/C [13] was 66.1%, the viability, T/C [14] was 68.5% and the viability, T/C [15] was 60.8%. It also gave a viability, T/C [16] of 78.2%, a viability, T/C [17] of 87.7% and a viability, T/C [18] of 23.3%. The viability, T/C [19] was 61.6%, the viability, T/C [20] was 69% and the viability, T/C [21] was 58.1%. For the same compound, the viability, T/C [22] was 85.2%, the viability, T/C [23] was 79.4% and the viability, T/C [24] was 21.1%. The viability, T/C [25] was 60.6%, the viability, T/C [26] was 67.2% and the viability, T/C [27] was 60.9%. For the same compound, the viability, T/C [28] was 76.5%, the viability, T/C [29] was 66.9% and the viability, T/C [30] was 3.26%. It also gave a viability, T/C [31] of 56.9%, a viability, T/C [32] of 57.8% and a viability, T/C [33] of 73.3%. The viability, T/C [34] was 82.5%, the viability, T/C [35] was 35.1% and the viability, T/C [36] was 0.26%.
